± gives the standard deviation of the averaged measurements.
Assays:
Test in all cases: relative viability vs DMSO control (72 h) (fraction); higher = more viable cells
[1] = tested on: SK-LMS-1
Procedure, shortened: (§1)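 Sarcoma cell lines were seeded in 384-well plates at densities chosen for 80–90% confluence, then 24 h later given 2.5 µl of serially diluted compound drawn from source plates spanning 10 mM to 0.0002 mM. They were held 72 h at 37 °C, 5% CO2, with 0.1% DMSO vehicle and a 5 µM positive control included. Relative viability was read with ATPLite as percent growth and averaged over up to triplicate wells. Rescaling placed full at 1 and none at 0.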

[2] = tested on: G401
Procedure, shortened: as §1

[3] = tested on: RD-ES
Procedure, shortened: as §1

[4] = tested on: KHOS-NP
Procedure, shortened: as §1

[5] = tested on: SW872
Procedure, shortened: as §1

[6] = tested on: MES-SA
Procedure, shortened: as §1

[7] = tested on: VA-ES-BJ
Procedure, shortened: as §1

[8] = tested on: SW1353
Procedure, shortened: as §1

[9] = tested on: HT1080
Procedure, shortened: as §1

[10] = tested on: RD
Procedure, shortened: as §1

[11] = tested on: SW684
Procedure, shortened: as §1

[12] = tested on: SK-ES-1
Procedure, shortened: as §1

## CC#CC(=O)N1CCC[C@H]1c1nc(-c2ccc(C(=O)Nc3ccccn3)cc2)c2c(N)nccn12 [Acalabrutinib]
[1]; 0.00017 µM
  relative viability: 1 ± 0.057
[1]; 0.00051 µM
  relative viability: 1.01 ± 0.032
[1]; 0.00152 µM
  relative viability: 1.03 ± 0.06
[1]; 0.00457 µM
  relative viability: 1.04 ± 0.024
[1]; 0.01372 µM
  relative viability: 1.04 ± 0.02
[1]; 0.04115 µM
  relative viability: 1 ± 0.054
[1]; 0.1235 µM
  relative viability: 1.03 ± 0.058
[1]; 0.3704 µM
  relative viability: 1.04 ± 0.049
[1]; 1.111 µM
  relative viability: 1.06 ± 0.014
[1]; 3.333 µM
  relative viability: 1.03 ± 0.047
[1]; 10 µM
  relative viability: 0.944 ± 0.03
[2]; 0.00017 µM
  relative viability: 0.98 ± 0.046
[2]; 0.00051 µM
  relative viability: 0.991 ± 0.016
[2]; 0.00152 µM
  relative viability: 0.997 ± 0.028
[2]; 0.00457 µM
  relative viability: 1.02 ± 0.015
[2]; 0.01372 µM
  relative viability: 1.01 ± 0.039
[2]; 0.04115 µM
  relative viability: 1.01 ± 0.064
[2]; 0.1235 µM
  relative viability: 0.985 ± 0.019
[2]; 0.3704 µM
  relative viability: 0.996 ± 0.053
[2]; 1.111 µM
  relative viability: 1.02 ± 0.024
[2]; 3.333 µM
  relative viability: 0.997 ± 0.036
[2]; 10 µM
  relative viability: 0.917 ± 0.016
[3]; 0.00017 µM
  relative viability: 0.9637 ± 0.0096
[3]; 0.00051 µM
  relative viability: 0.979 ± 0.011
[3]; 0.00152 µM
  relative viability: 0.998 ± 0.03
[3]; 0.00457 µM
  relative viability: 0.982 ± 0.033
[3]; 0.01372 µM
  relative viability: 1 ± 0.013
[3]; 0.04115 µM
  relative viability: 0.99 ± 0.029
[3]; 0.1235 µM
  relative viability: 0.992 ± 0.032
[3]; 0.3704 µM
  relative viability: 1.021 ± 0.0033
[3]; 1.111 µM
  relative viability: 1.02 ± 0.026
[3]; 3.333 µM
  relative viability: 0.974 ± 0.012
[3]; 10 µM
  relative viability: 0.9313 ± 0.007
[4]; 0.00017 µM
  relative viability: 1.03 ± 0.026
[4]; 0.00051 µM
  relative viability: 1.03 ± 0.029
[4]; 0.00152 µM
  relative viability: 1.04 ± 0.019
[4]; 0.00457 µM
  relative viability: 1.04 ± 0.048
[4]; 0.01372 µM
  relative viability: 1.02 ± 0.037
[4]; 0.04115 µM
  relative viability: 1.03 ± 0.034
[4]; 0.1235 µM
  relative viability: 1.03 ± 0.03
[4]; 0.3704 µM
  relative viability: 1.05 ± 0.027
[4]; 1.111 µM
  relative viability: 1.04 ± 0.054
[4]; 3.333 µM
  relative viability: 1.08 ± 0.016
[4]; 10 µM
  relative viability: 1.08 ± 0.056
[5]; 0.00017 µM
  relative viability: 0.999 ± 0.085
[5]; 0.00051 µM
  relative viability: 1.02 ± 0.068
[5]; 0.00152 µM
  relative viability: 1.01 ± 0.039
[5]; 0.00457 µM
  relative viability: 1.01 ± 0.033
[5]; 0.01372 µM
  relative viability: 0.975 ± 0.11
[5]; 0.04115 µM
  relative viability: 0.95 ± 0.023
[5]; 0.1235 µM
  relative viability: 0.979 ± 0.052
[5]; 0.3704 µM
  relative viability: 0.997 ± 0.018
[5]; 1.111 µM
  relative viability: 1.04 ± 0.013
[5]; 3.333 µM
  relative viability: 1.03 ± 0.028
[5]; 10 µM
  relative viability: 0.987 ± 0.056
[6]; 0.00017 µM
  relative viability: 0.914 ± 0.047
[6]; 0.00051 µM
  relative viability: 0.905 ± 0.032
[6]; 0.00152 µM
  relative viability: 0.937 ± 0.032
[6]; 0.00457 µM
  relative viability: 0.914 ± 0.028
[6]; 0.01372 µM
  relative viability: 0.908 ± 0.033
[6]; 0.04115 µM
  relative viability: 0.909 ± 0.021
[6]; 0.1235 µM
  relative viability: 0.912 ± 0.019
[6]; 0.3704 µM
  relative viability: 0.926 ± 0.037
[6]; 1.111 µM
  relative viability: 0.909 ± 0.051
[6]; 3.333 µM
  relative viability: 0.914 ± 0.02
[6]; 10 µM
  relative viability: 0.907 ± 0.032
[7]; 0.00017 µM
  relative viability: 1.01 ± 0.035
[7]; 0.00051 µM
  relative viability: 1.01 ± 0.035
[7]; 0.00152 µM
  relative viability: 1.03 ± 0.016
[7]; 0.00457 µM
  relative viability: 1.04 ± 0.064
[7]; 0.01372 µM
  relative viability: 1.01 ± 0.049
[7]; 0.04115 µM
  relative viability: 1.01 ± 0.032
[7]; 0.1235 µM
  relative viability: 1 ± 0.033
[7]; 0.3704 µM
  relative viability: 1.05 ± 0.023
[7]; 1.111 µM
  relative viability: 1.08 ± 0.016
[7]; 3.333 µM
  relative viability: 1.07 ± 0.03
[7]; 10 µM
  relative viability: 1.05 ± 0.048
[8]; 0.00017 µM
  relative viability: 0.974 ± 0.043
[8]; 0.00051 µM
  relative viability: 0.933 ± 0.03
[8]; 0.00152 µM
  relative viability: 0.942 ± 0.018
[8]; 0.00457 µM
  relative viability: 0.946 ± 0.02
[8]; 0.01372 µM
  relative viability: 0.947 ± 0.021
[8]; 0.04115 µM
  relative viability: 0.944 ± 0.032
[8]; 0.1235 µM
  relative viability: 0.957 ± 0.013
[8]; 0.3704 µM
  relative viability: 0.936 ± 0.039
[8]; 1.111 µM
  relative viability: 0.962 ± 0.03
[8]; 3.333 µM
  relative viability: 0.8927 ± 0.0083
[8]; 10 µM
  relative viability: 0.827 ± 0.013
[9]; 0.00017 µM
  relative viability: 1.03 ± 0.03
[9]; 0.00051 µM
  relative viability: 1.05 ± 0.018
[9]; 0.00152 µM
  relative viability: 1.05 ± 0.037
[9]; 0.00457 µM
  relative viability: 1.036 ± 0.0092
[9]; 0.01372 µM
  relative viability: 1.01 ± 0.015
[9]; 0.04115 µM
  relative viability: 1.029 ± 0.0061
[9]; 0.1235 µM
  relative viability: 1.04 ± 0.0099
[9]; 0.3704 µM
  relative viability: 1.07 ± 0.024
[9]; 1.111 µM
  relative viability: 1.03 ± 0.016
[9]; 3.333 µM
  relative viability: 1.08 ± 0.039
[9]; 10 µM
  relative viability: 1.04 ± 0.05
[10]; 0.00017 µM
  relative viability: 1.13 ± 0.08
[10]; 0.00051 µM
  relative viability: 1.13 ± 0.071
[10]; 0.00152 µM
  relative viability: 1.12 ± 0.085
[10]; 0.00457 µM
  relative viability: 1.15 ± 0.053
[10]; 0.01372 µM
  relative viability: 1.13 ± 0.032
[10]; 0.04115 µM
  relative viability: 1.09 ± 0.064
[10]; 0.1235 µM
  relative viability: 1.06 ± 0.049
[10]; 0.3704 µM
  relative viability: 1.06 ± 0.031
[10]; 1.111 µM
  relative viability: 1.09 ± 0.019
[10]; 3.333 µM
  relative viability: 1.13 ± 0.017
[10]; 10 µM
  relative viability: 1.07 ± 0.065
[11]; 0.00017 µM
  relative viability: 1.11 ± 0.017
[11]; 0.00051 µM
  relative viability: 1.14 ± 0.023
[11]; 0.00152 µM
  relative viability: 1.09 ± 0.071
[11]; 0.00457 µM
  relative viability: 1.13 ± 0.039
[11]; 0.01372 µM
  relative viability: 1.13 ± 0.039
[11]; 0.04115 µM
  relative viability: 1.1 ± 0.041
[11]; 0.1235 µM
  relative viability: 1.11 ± 0.035
[11]; 0.3704 µM
  relative viability: 1.15 ± 0.048
[11]; 1.111 µM
  relative viability: 1.14 ± 0.034
[11]; 3.333 µM
  relative viability: 1.12 ± 0.056
[11]; 10 µM
  relative viability: 1.08 ± 0.067
[12]; 0.00017 µM
  relative viability: 0.978 ± 0.013
[12]; 0.00051 µM
  relative viability: 0.989 ± 0.053
[12]; 0.00152 µM
  relative viability: 1.04 ± 0.011
[12]; 0.00457 µM
  relative viability: 1.03 ± 0.026
[12]; 0.01372 µM
  relative viability: 0.996 ± 0.06
[12]; 0.04115 µM
  relative viability: 0.998 ± 0.017
[12]; 0.1235 µM
  relative viability: 0.999 ± 0.036
[12]; 0.3704 µM
  relative viability: 1.02 ± 0.017
[12]; 1.111 µM
  relative viability: 1.012 ± 0.0078
[12]; 3.333 µM
  relative viability: 1.02 ± 0.035
[12]; 10 µM
  relative viability: 0.983 ± 0.022

From the supplement of paper PMC10883282
